Calls of active or inactive are those of the source. No cut-off for these calls is given here.
Legend:
[1] = system: Mus musculus; test: Anticonvulsant activity in albino CD1 mouse assessed as protection against subcutaneous pentylenetetrazole-induced seizures at 300 mg/kg, ip measured after 4 hrs; format: functional, organism-based
[2] = system: Mus musculus; test: Anticonvulsant activity in albino CD1 mouse assessed as protection against subcutaneous pentylenetetrazole-induced seizures at 300 mg/kg, ip measured after 0.5 hrs; format: functional, organism-based
[3] = system: Mus musculus; test: Neurotoxicity in albino CD1 mouse assessed as motor impairment at 300 mg/kg, ip measured after 0.5 hrs by rotarod test; format: toxicity, organism-based; details: in vivo
[4] = system: Mus musculus; test: Anticonvulsant activity in albino CD1 mouse assessed as protection against maximal electroshock-induced seizures at 300 mg/kg, ip measured after 4 hrs; format: functional, organism-based
[5] = system: Mus musculus; test: Neurotoxicity in albino CD1 mouse assessed as motor impairment at 300 mg/kg, ip measured after 4 hrs by rotarod test; format: toxicity, organism-based; details: in vivo
[6] = system: Mus musculus; test: Anticonvulsant activity in albino CD1 mouse assessed as protection against maximal electroshock-induced seizures at 300 mg/kg, ip measured after 0.5 hrs; format: functional, organism-based
[7] = system: Mus musculus; test: Neurotoxicity in ip dosed albino CD1 mouse assessed as minimum dose required to induce motor impairment in half and more mouse measured after 0.5 hrs by rotarod test; format: toxicity, organism-based; details: in vivo
[8] = system: Mus musculus; test: Anticonvulsant activity in ip dosed albino CD1 mouse assessed as minimum dose required to protect subcutaneous pentylenetetrazole-induced seizures in half and more mouse measured after 0.5 hrs; format: functional
[9] = system: Mus musculus; test: Anticonvulsant activity in albino CD1 mouse assessed as protection against 32 mA current-induced seizure at 100 mg/kg, ip after 4 hrs by 6 Hz psychomotor test; format: functional, organism-based
[10] = system: Mus musculus; test: Anticonvulsant activity in ip dosed albino CD1 mouse assessed as protection against subcutaneous pentylenetetrazole-induced seizures; format: functional
[11] = system: Mus musculus; test: Anticonvulsant activity in ip dosed albino CD1 mouse assessed as protection against 32 mA current-induced seizure by 6 Hz psychomotor test; format: functional
[12] = system: Mus musculus; test: Anticonvulsant in ip dosed CD1 mouse assessed as time to peak effect; format: functional
[13] = system: Mus musculus; test: Protection index, ratio of TD50 for motor impairment in ip dosed albino CD1 mouse to ED50 for protection against subcutaneous pentylenetetrazole-induced seizures in ip dosed albino CD1 mouse
[14] = system: Mus musculus; test: Protection index, ratio of TD50 for motor impairment in ip dosed albino CD1 mouse to ED50 for protection against 32 mA current-induced seizure in ip dosed albino CD1 mouse by 6 Hz psychomotor test
[15] = system: Mus musculus; test: Anticonvulsant activity in albino CD1 mouse assessed as protection against 32 mA current-induced seizure at 100 mg/kg, ip after 0.5 hrs by 6 Hz psychomotor test; format: functional
[16] = system: Mus musculus; test: Anticonvulsant activity in ip dosed albino CD1 mouse assessed as minimum dose required to protect maximal electroshock-induced seizures in half and more mouse measured after 4 hrs; format: functional
[17] = system: Mus musculus; test: Anticonvulsant activity in ip dosed albino CD1 mouse assessed as minimum dose required to protect maximal electroshock-induced seizures in half and more mouse measured after 0.5 hrs; format: functional
[18] = Neurotoxicity in ip dosed albino CD1 mouse assessed as motor impairment by rotarod test; format: toxicity, organism-based; details: in vivo
[19] = system: Mus musculus; test: Anticonvulsant activity in albino CD1 mouse assessed as protection against 32 mA current-induced seizure incidents at 100 mg/kg, ip after 0.5 hrs by 6 Hz psychomotor test; format: functional
[20] = system: Mus musculus; test: Anticonvulsant activity in ip dosed albino CD1 mouse assessed as minimum dose required to protect subcutaneous pentylenetetrazole-induced seizures in half and more mouse measured after 4 hrs; format: functional

Row | SMILES | Activity [1] | Activity [2] | Activity [3] | Activity [4] | Activity [5] | Activity [6] | also measured
1 | O=C1CCC(=O)N1CN1CCC(Cc2ccccc2)CC1 | inactive | inactive | Non-Toxic | inactive | Non-Toxic | inactive | –
2 | CN1CCN(CN2C(=O)CC(C(c3ccccc3)c3ccccc3)C2=O)CC1 (configuration not stated) | inactive | – | – | – | Non-Toxic | – | Activity [7]: 300 mg/kg; Activity [8]: 100 mg/kg; Activity [9]: Active; ED50 [10]: 75.6 mg/kg; ED50 [11]: 39.2 mg/kg; Time [12]: 0.5 h; Ratio TD50/ED50 [13]: 3.26; Ratio TD50/ED50 [14]: 6.28; Activity [15]: 100%; Activity [16]: 300 mg/kg; Activity [17]: 300 mg/kg; TD50 [18]: 247 mg/kg
3 | CN1CCN(CN2C(=O)CCC2=O)CC1 | inactive | inactive | Non-Toxic | inactive | Non-Toxic | inactive | –
4 | CC1CC(=O)N(CN2CCN(Cc3ccccc3)CC2)C1=O (configuration not stated) | inactive | inactive | Non-Toxic | inactive | Non-Toxic | inactive | –
5 | CC[C@@H](C(N)=O)N1CCCC1=O | – | – | – | – | – | – | Time [12]: 1 h; TD50 [18]: > 500 mg/kg
6 | O=C1CC(C(c2ccccc2)c2ccccc2)C(=O)N1CN1CCN(CCO)CC1 (configuration not stated) | – | – | – | – | Non-Toxic | – | Activity [19]: 66%; Activity [7]: 300 mg/kg; Activity [8]: 100 mg/kg; ED50 [10]: 83.1 mg/kg; ED50 [11]: 51.7 mg/kg; Time [12]: 0.5 h; Ratio TD50/ED50 [13]: 2.67; Ratio TD50/ED50 [14]: 4.29; Activity [16]: 300 mg/kg; Activity [17]: 300 mg/kg; TD50 [18]: 222 mg/kg; Activity [20]: 100 mg/kg
7 | CC(C)C1CC(=O)N(CN2CCN(c3ncccn3)CC2)C1=O (configuration not stated) | inactive | inactive | Non-Toxic | inactive | Non-Toxic | inactive | –
8 | O=C1CCC(=O)N1CN1CCN(C2CCCCC2)CC1 | inactive | inactive | Non-Toxic | inactive | Non-Toxic | inactive | –
9 | CC(C)C1CC(=O)N(CN2CCOCC2)C1=O (configuration not stated) | – | inactive | Non-Toxic | inactive | Non-Toxic | inactive | Activity [9]: inactive; Activity [15]: inactive; Activity [20]: 300 mg/kg
10 | CCCC(CCC)C(=O)O [VALPROIC ACID] | – | – | – | – | – | – | ED50 [10]: 240 mg/kg; ED50 [11]: 131 mg/kg; Time [12]: 0.5 h
11 | CC(C)C1CC(=O)N(CN2CCN(CCO)CC2)C1=O (configuration not stated) | – | inactive | Non-Toxic | – | Non-Toxic | inactive | Activity [16]: 300 mg/kg; Activity [20]: 300 mg/kg
12 | CC1CC(=O)N(CN2CCN(C3CCCCC3)CC2)C1=O (configuration not stated) | inactive | inactive | Non-Toxic | inactive | Non-Toxic | inactive | –
13 | O=C1CC(C(c2ccccc2)c2ccccc2)C(=O)N1CN1CCN(c2ncccn2)CC1 (configuration not stated) | inactive | – | Non-Toxic | inactive | Non-Toxic | inactive | Activity [8]: 300 mg/kg
14 | CC(C)C1CC(=O)N(CN2CCN(C3CCCCC3)CC2)C1=O (configuration not stated) | – | inactive | Non-Toxic | inactive | Non-Toxic | inactive | ED50 [10]: 91.8 mg/kg; Time [12]: 0.5 h; Ratio TD50/ED50 [13]: <2.17; TD50 [18]: < 200 mg/kg; Activity [20]: 100 mg/kg
15 | O=C1CC(C(c2ccccc2)c2ccccc2)C(=O)N1CN1CCN(C2CCCCC2)CC1 (configuration not stated) | – | – | Non-Toxic | inactive | Non-Toxic | inactive | Activity [8]: 300 mg/kg; Activity [20]: 300 mg/kg
16 | CC(C)C1CC(=O)N(CN2CCN(Cc3ccccc3)CC2)C1=O (configuration not stated) | inactive | inactive | Non-Toxic | inactive | Non-Toxic | inactive | –

Row | SMILES | Activity [1] | Activity [2] | Activity [3] | Activity [4] | Activity [5] | Activity [6] | also measured
17 | CCC1(C)CC(=O)NC1=O (configuration not stated) [ETHOSUXIMIDE] | – | – | – | – | – | – | Time [12]: 0.25 h
18 | CC1CC(=O)N(CN2CCN(C)CC2)C1=O (configuration not stated) | inactive | inactive | Non-Toxic | inactive | Non-Toxic | inactive | –
19 | O=C1CC(C(c2ccccc2)c2ccccc2)C(=O)N1CN1CCN(Cc2ccccc2)CC1 (configuration not stated) | – | – | Non-Toxic | inactive | Non-Toxic | inactive | Activity [8]: 100 mg/kg; Activity [20]: 300 mg/kg
20 | CC(C)C1CC(=O)N(CN2CCC(Cc3ccccc3)CC2)C1=O (configuration not stated) | inactive | inactive | Non-Toxic | inactive | Non-Toxic | inactive | –
21 | O=C1CCC(=O)N1CN1CCN(c2ncccn2)CC1 | inactive | inactive | Non-Toxic | inactive | Non-Toxic | inactive | –
22 | O=C1CCC(=O)N1CN1CCN(Cc2ccccc2)CC1 | inactive | inactive | Non-Toxic | inactive | Non-Toxic | inactive | –
23 | O=C1CCC(=O)N1CN1CCN(CCO)CC1 | inactive | inactive | Non-Toxic | inactive | Non-Toxic | inactive | –
24 | O=C1CCC(=O)N1CN1CCOCC1 | inactive | inactive | Non-Toxic | inactive | Non-Toxic | inactive | –
25 | CC1CC(=O)N(CN2CCN(c3ncccn3)CC2)C1=O (configuration not stated) | inactive | inactive | Non-Toxic | inactive | Non-Toxic | inactive | –
26 | CC1CC(=O)N(CN2CCOCC2)C1=O (configuration not stated) | inactive | inactive | Non-Toxic | inactive | Non-Toxic | inactive | –
27 | COC[C@@H](NC(C)=O)C(=O)NCc1ccccc1 [LACOSAMIDE] | – | – | – | – | – | – | ED50 [11]: 5.2 mg/kg; Time [12]: 0.5 h
28 | CC1CC(=O)N(CN2CCC(Cc3ccccc3)CC2)C1=O (configuration not stated) | inactive | inactive | Non-Toxic | inactive | Non-Toxic | inactive | –
29 | CC(C)C1CC(=O)N(CN2CCN(C)CC2)C1=O (configuration not stated) | – | – | Non-Toxic | inactive | Non-Toxic | inactive | Activity [8]: 100 mg/kg; Activity [9]: inactive; ED50 [10]: 74.9 mg/kg; Time [12]: 0.5 h; Ratio TD50/ED50 [13]: >4; Activity [15]: inactive; TD50 [18]: > 300 mg/kg; Activity [20]: 300 mg/kg
30 | CC1CC(=O)N(CN2CCN(CCO)CC2)C1=O (configuration not stated) | inactive | inactive | Non-Toxic | inactive | Non-Toxic | inactive | –
31 | O=C1CC(C(c2ccccc2)c2ccccc2)C(=O)N1CN1CCC(Cc2ccccc2)CC1 (configuration not stated) | inactive | inactive | Non-Toxic | inactive | Non-Toxic | inactive | –
